Series [1] can be described thus: Optical properties in methanol. It is filed as physicochemical. The protocol:
The optical properties (in methanol) of compounds 2 to 4 synthesized were determined (Table 1). The compounds 2 to 4 each have maximum absorption at a wavelength at or near 500 nm and emit fluorescence at 509 nm. It was observed that introduction of a perfluoroalkyl group caused some decreases in light absorption coefficients, but little change in their fluorescence quantum yield.

Series [2] can be described thus: Photostability under light irradiation (500 nm, methanol). The series is classed as physicochemical. As to conditions: methanol solution, light of 500 nm, 37° C., FIG. 2. The protocol:
Next, a methanol solution containing each of compounds 2 to 4 was irradiated with light of 500 nm, and incubated at 37° C. Then, a change in the time course of the absorbance at the maximum light absorption wavelength was measured to compare their photostability (FIG. 2). […] By contrast, compounds 3 and 4, having a perfluoroalkyl group, took 2 hours or longer until complete photofading. […] Reaction with singlet oxygen seems to be primarily responsible for the photofading under visible light irradiation. So, the photostability of the present compounds was considered from the viewpoint of the reactivity with singlet oxygen. First, the HOMO/LUMO levels of compounds 2 to 4 were calculated in accordance with a DFT algorithm (FIG. 3). […] As the HOMO level increases, the compounds are more susceptible to oxygenation by singlet oxygen. Thus, this calculation results agree with the results of the photostability test. […] This reflects the fact that the maximum absorption wavelength is unchanged.

A short description of series [3]: Absorption spectrum measurement (Test Example 3). The series is classed as physicochemical. The note with it: for shift of maximum absorption wavelength to the long-wavelength side: 8 vs compound 9, 11 vs F on boron, 12 with R^6 iodine; for Absorbance λmax: Table 2. The protocol: Each absorption spectrum was measured (Table 2). The maximum absorption wavelength of compound 8, in which the dimethylamino phenyl group of compound 9 was changed to a julolidine group, was shifted to the long-wavelength side by 30 nm than that of compound 9. […] The maximum absorption wavelength of compound 12, in which R^6 was iodine, was shifted to the long-wavelength side by 20 nm. This allowed the compound to be efficiently excited by light with a longer wavelength of over 650 nm. In the cases of the carboxyl group- or sulfonic acid group-substituted tetrahydroquinoline derivatives (compounds 13 to 16) so as to introduce a water-soluble substituent, the absorption wavelength was shifted to the short-wavelength side by about 10 nm than that of the julolidine-substituted derivative. It can be deduced from the above results that as the lone electron pair of the nitrogen atom is arranged more stably on the same plane as that of the benzene ring due to the condensed ring structure of the julolidine or tetrahydroquinoline, the absorption wavelength tends to be shifted more to the long-wavelength side.

The target in series [4] is T1, Aβ1-42 (Homo sapiens, UniProt P05067). The series is described as follows: In vitro Aβ1-42 oxygenation in phosphate buffer under 595 nm light, MALDI-TOF MS. The note with it: for Aβ1-42 oxygenation activity / rate of oxygenation of Aβ1-42: phosphate buffer pH 7.4, 37° C., light at 595 nm, FIG. 5. The series is classed as biochemical. As to the method: (1) To check whether or not the compounds synthesized actually had Aβ oxygenation activity, in vitro oxygenation experiments were carried out using Aβ1-42 as a substrate. Compound 12 (20 μM) was added to a phosphate buffer solution (pH 7.4) containing Aβ1-42 (20 μM), and the mixture was incubated at 37° C. under LED light irradiation (at a wavelength of 595 nm). Then, a mass spectrometer (MALDI-TOF MS) was used to follow the reaction. Before the light irradiation, native Aβ1-42 and Na^+ adducts were primarily observed. […] (2) The Aβ1-42 oxygenation activities of compounds 8, 11, and 12 were compared (FIG. 5). First, 0.1% TFA aqueous solution containing o-acyliso-Aβ1-42 was diluted with a phosphate buffer solution (PB) (10 mM, pH 7.4) to prepare a native Aβ1-42 solution. To the resulting solution was added a DMSO catalyst stock solution (1.0 M). While incubated at 37° C., the mixture was irradiated with light at 595 nm. […] The heavy metal effect seems to enhance the efficiency of generating singlet oxygen.
T1 sequence (P05067 672-713 limits assumed): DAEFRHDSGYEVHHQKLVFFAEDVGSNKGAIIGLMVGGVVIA

Series [5] concerns the target T1, Aβ1-42. The experiment in a line: Aβ peptide selectivity test: oxygenation of Aβ1-42. It is filed as biochemical. The note with it: 20 μM, pH 7.4, pre-incubated 3 hours, 37° C., 30 min, LED 595 nm, FIG. 9. The protocol:
(§1) Compound 14 was used to investigate whether or not a compound of the present invention was able to selectively oxygenate Aβ. First, compound 14 (20 μM) was added to phosphate buffer solutions (pH 7.4) each containing Aβ1-42 (20 μM), angiotensin IV (20 μM) or a methionine enkephalin (20 μM), which solutions had been pre-incubated for 3 hours. The mixtures were incubated at 37° C. for 30 min under LED light irradiation (at a wavelength of 595 nm). Then, a mass spectrometer (MALDI-TOF MS) was used to follow the reaction. Three model peptides having a residue capable of being oxygenated were selected, including angiotensin IV (AT-4), met-enkephalin (ME), and somatostatin (Sat). These three peptides were subjected to the same oxygenation conditions as for Aβ1-42 (FIG. 9).

The test system of series [6] is angiotensin IV (AT-4), met-enkephalin (ME), and somatostatin (Sat). The series is described as follows: Aβ peptide selectivity test: oxygenation of non-amyloid model peptides. The series is classed as biochemical. As to conditions: same oxygenation conditions as for Aβ1-42, FIG. 9. As to the method:
as §1

For `CC1=CC(C)=[N+]2C1=Cc1c(C)cc(C)n1[B-]2(F)F` [Compound 2, reference compound], in series [1], the “Absorbance λmax” value is 502 nm, the “Emission λmax” value is 509 nm, the “Φfl (fluorescence quantum yield)” value turned out to be 0.80 and the “ϵ (light absorption coefficient)” value was 81400 M⁻¹ cm⁻¹. Further, the “time to substantial photofading” value in series [2] is recorded as “about 30 min”.

Take `CC1=CC(C)=[N+]2C1=Cc1c(C)cc(C)n1[B-]2(F)C(F)(F)F` (stereo not drawn) [Compound 3]: in series [1], the “Absorbance λmax” value was 502 nm, the “Emission λmax” value is 509 nm, the “Φfl (fluorescence quantum yield)” value was 0.80 and the “ϵ (light absorption coefficient)” value came out at 74000 M⁻¹ cm⁻¹.

With `CC1=CC(C)=[N+]2C1=Cc1c(C)cc(C)n1[B-]2(F)C(F)(F)C(F)(F)F` (stereo not drawn) [Compound 4], in series [1], the “Absorbance λmax” value is on record as 503 nm, the “Emission λmax” value is given as 509 nm, the “Φfl (fluorescence quantum yield)” value stood at 0.79 and the “ϵ (light absorption coefficient)” value worked out at 72600 M⁻¹ cm⁻¹.

In the case of `CC1=CC(C)=[N+]2C1=Cc1c(C)cc(/C=C/c3cc4c5c(c3)CCCN5CCC4)n1[B-]2(F)F` [Compound 8], in series [3], the “shift of maximum absorption wavelength to the long-wavelength side” value (shortened to “shift of maximum absorption wavelength”) amounted to 30 nm and the “Absorbance λmax” value is 639 nm. The Aβ1-42 oxygenation activity result on Aβ1-42 [4] is reported as “helped oxygenate Aβ1-42 under the light irradiation”.

For the compound `CC1=CC(C)=[N+]2C1=Cc1c(C)cc(/C=C/c3cc4c5c(c3)CCCN5CCC4)n1[B-]2(F)C(F)(F)F` (stereo not drawn) [Compound 11], in series [3], the “shift of maximum absorption wavelength” value was “almost no observable change” and the “Absorbance λmax” value was determined as 640 nm. Also, at Aβ1-42 [4], the Aβ1-42 oxygenation activity entry is “helped oxygenate Aβ1-42 under the light irradiation” and the “rate of oxygenation of Aβ1-42” value is “faster oxygenation rate than the compounds 8”.

Take `CC1=C(I)C(C)=[N+]2C1=Cc1c(C)cc(/C=C/c3cc4c5c(c3)CCCN5CCC4)n1[B-]2(F)C(F)(F)F` (stereo not drawn) [Compound 12]: in series [3], the “shift of maximum absorption wavelength” value turned out to be 20 nm and the “Absorbance λmax” value was determined as 660 nm. Besides, on Aβ1-42 [4] (compound 20 μM, Aβ1-42 20 μM, pH 7.4, 37° C., LED 595 nm, FIG. 4), the “Aβ1-42 oxygenation (oxygen adducts by MALDI-TOF MS)” value is given as “there appeared ion peaks indicating the presence of oxygen adducts in a time-dependent manner”. On Aβ1-42 [4], the Aβ1-42 oxygenation activity entry is “helped oxygenate Aβ1-42 under the light irradiation” and the “rate of oxygenation of Aβ1-42” value is listed as “significantly faster”.

With `Cc1cc2nc3c(=O)[nH]c(=O)nc-3n(C[C@H](O)[C@H](O)[C@H](O)CO)c2cc1C` [riboflavin], the “oxygenation activity toward Aβ1-42” value on Aβ1-42 [5] is on record as “a certain oxygenation activity on all the peptides”. Also, the “oxygenation of the other (non-amyloid) peptides” value in series [6] is reported as “a certain oxygenation activity on all the peptides”.

Values taken from patent US10188671B2, “Boron-dipyrrin complex and medicament containing the same” (JAPAN SCIENCE AND TECHNOLOGY AGENCY, priority 2015, dated 2019).
